Each structure is given as a SMILES string. Activity calls are given as the source filed them. The rule behind the calls is not given here.

Data on 7 compounds can be found in ChEMBL document CHEMBL1131699, “Monoacetyldiglycerides as new Ca2+ mobilizing agents in rat pancreatic acinar cells” (1999).

For test [1], the species on record is Rattus norvegicus. Kind of test: Compound was tested in vitro for its ability to increase [Ca+2] in pancreatic acinar cells at a concentration of 0.01 mg/mL. The format is functional.
The species named for test [2] is Rattus norvegicus. Kind of test: Compound was tested in vitro for its ability to increase [Ca+2] in pancreatic acinar cells at a concentration of 0.01 mg/mL; Active. The format is functional, cell-based.
The species named for test [3] is Rattus norvegicus. Kind of test: Compound was tested in vitro for its ability to increase the rate of [Ca+2] mobilization in pancreatic acinar cells. The format is functional.

For `CCCCC/C=C\C/C=C\C/C=C\C/C=C\CCCC(=O)OC(COC(C)=O)COC(=O)CCCCCCCCCCCCCCC` (centres undefined), in the test filed under Rattus norvegicus [1], the “Increase in [Ca+2]” value was 32.8 nM.

Take `CCCCCCCC/C=C\CCCCCCCC(=O)OC(COC(C)=O)COC(=O)CCCCCCCCCCCCCCC` (centres undefined): the “Increase in [Ca+2]” value in the test filed under Rattus norvegicus [1] amounted to 26.6 nM.

Take `CCCCCCCCCCCCCCCC(=O)OCC(COC(C)=O)OC(=O)[C@H]1C[C@@H]1c1ccccc1` (some centres undefined): in the test listed under Rattus norvegicus [2], the “Increase in [Ca+2]” value is “Active”.

Consider `CCCCC/C=C\C/C=C\CCCCCCCC(=O)OC(COC(C)=O)COC(=O)CCCCCCCCCCCCCCC` (centres undefined) [MOSEDIPIMOD], for which the “Rate of [Ca+2] increase” value in the test filed under Rattus norvegicus [3] came out at 9.8 nM/min. Also, the “Increase in [Ca+2]” value in the test listed under Rattus norvegicus [1] is reported as 84.9 nM.

Turning to `CC/C=C\C/C=C\C/C=C\CCCCCCCC(=O)OC(COC(C)=O)COC(=O)CCCCCCCCCCCCCCC` (centres undefined), in the test listed under Rattus norvegicus [2], the “Increase in [Ca+2]” value is “Active”.

For the compound `CC/C=C\C/C=C\C/C=C\C/C=C\C/C=C\C/C=C\CCC(=O)OC(COC(C)=O)COC(=O)CCCCCCCCCCCCCCC` (centres undefined), the “Rate of [Ca+2] increase” value in the test filed under Rattus norvegicus [3] came to 26.7 nM/min. The “Increase in [Ca+2]” value in the test listed under Rattus norvegicus [1] came to 75.2 nM.

Turning to `CCCCCCCC/C=C\CCCCCCCC(=O)OCC(COC(C)=O)OC(=O)CCCCCCCCCCCCCCC` (centres undefined), the “Increase in [Ca+2]” value in the test filed under Rattus norvegicus [1] amounted to 31.2 nM.
